ChEMBL document CHEMBL1201862, “PubChem BioAssay data set” (2004)
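How tested: cells in 96-well plates exposed to compound for 48 hours at five concentrations. At the GI50, growth is halved.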 The source made the active and inactive calls. Rule as the data show it: active = GI50 up to about 1.1 µM and inactive = higher.

Columns and labels:
Experiment in all cases: DTP human tumour cell line panel, 48 h
A549 = system: A549
ACHN = system: ACHN
HCC 2998 = system: HCC 2998
HL-60 = system: HL-60
HOP-92 = system: HOP-92
K562 = system: K562
MCF7 = system: MCF7
MOLT-4 = system: MOLT-4
NCI/ADR-RES = system: NCI/ADR-RES
OVCAR-3 = system: OVCAR-3
OVCAR-8 = system: OVCAR-8
PC-3 = system: PC-3
RPMI-8226 = system: RPMI-8226
RXF 393 = system: RXF 393
SK-OV-3 = system: SK-OV-3
SNB-19 = system: SNB-19
SR = system: SR
TK-10 = system: TK-10
UACC-257 = system: UACC-257
OVCAR-5 = system: OVCAR-5

Structure (SMILES)	GI50 (A549)	GI50 (ACHN)	GI50 (HCC 2998)	GI50 (HL-60)	GI50 (HOP-92)	GI50 (K562)	GI50 (MCF7)	GI50 (MOLT-4)	GI50 (NCI/ADR-RES)	GI50 (OVCAR-3)	GI50 (OVCAR-8)	GI50 (PC-3)	GI50 (RPMI-8226)	GI50 (RXF 393)	GI50 (SK-OV-3)	GI50 (SNB-19)	GI50 (SR)	GI50 (TK-10)	GI50 (UACC-257)	GI50 (OVCAR-5)
CCOC(CN=C=S)OCC	> 10 µM (inactive)	> 10 µM (inactive)	> 10 µM (inactive)	3.83 µM (inactive)	7.67 µM (inactive)	7.01 µM (inactive)	9.27 µM (inactive)	> 10 µM (inactive)	> 10 µM (inactive)	> 10 µM (inactive)	> 10 µM (inactive)	> 10 µM (inactive)	3.77 µM (inactive)	> 10 µM (inactive)	> 10 µM (inactive)	> 10 µM (inactive)	2.52 µM (inactive)	> 10 µM (inactive)	> 10 µM (inactive)	–
COc1ccccc1C#C/C=C\C#Cc1ccccc1C#N	6.89 µM (inactive)	13.9 µM (inactive)	6.19 µM (inactive)	4.55 µM (inactive)	31.7 µM (inactive)	3.68 µM (inactive)	4.61 µM (inactive)	0.268 µM (active)	10.4 µM (inactive)	4.4 µM (inactive)	5.35 µM (inactive)	13.2 µM (inactive)	–	7.98 µM (inactive)	39.8 µM (inactive)	37.8 µM (inactive)	4.08 µM (inactive)	20.7 µM (inactive)	5.2 µM (inactive)	39.2 µM (inactive)
O=C(NCCCNCCCNC(=O)c1cc(-c2ccccc2)nc2ccccc12)c1cc(-c2ccccc2)nc2ccccc12	1.83 µM (inactive)	2.12 µM (inactive)	0.834 µM (active)	1.4 µM (inactive)	2.02 µM (inactive)	1.79 µM (inactive)	1.66 µM (inactive)	–	2.39 µM (inactive)	1.46 µM (inactive)	2.56 µM (inactive)	1.6 µM (inactive)	1.72 µM (inactive)	1.77 µM (inactive)	2.21 µM (inactive)	1.72 µM (inactive)	1.67 µM (inactive)	1.91 µM (inactive)	1.97 µM (inactive)	1.87 µM (inactive)
CCOP(=O)(OCC)Oc1c(OC)c2[nH]c(C(=O)OC)cc2c2c(C(=O)O)c[nH]c12	> 100 µM (inactive)	> 100 µM (inactive)	> 100 µM (inactive)	> 100 µM (inactive)	> 100 µM (inactive)	> 100 µM (inactive)	> 100 µM (inactive)	> 100 µM (inactive)	> 100 µM (inactive)	> 100 µM (inactive)	> 100 µM (inactive)	> 100 µM (inactive)	–	> 100 µM (inactive)	> 100 µM (inactive)	> 100 µM (inactive)	> 100 µM (inactive)	> 100 µM (inactive)	> 100 µM (inactive)	> 100 µM (inactive)
CC(C)Oc1cc(O)c2c(c1)OCC=C2CCC(=O)O	28.1 µM (inactive)	22.1 µM (inactive)	–	20.6 µM (inactive)	20 µM (inactive)	28.4 µM (inactive)	13.9 µM (inactive)	23.8 µM (inactive)	28.4 µM (inactive)	41 µM (inactive)	36.1 µM (inactive)	54.6 µM (inactive)	24.4 µM (inactive)	69.5 µM (inactive)	49 µM (inactive)	38 µM (inactive)	34 µM (inactive)	20.3 µM (inactive)	20.2 µM (inactive)	31.8 µM (inactive)
NC(=S)SC1=NC(=O)C2(NN1)c1ccccc1-c1ccccc12	> 10 µM (inactive)	5.36 µM (inactive)	> 10 µM (inactive)	> 10 µM (inactive)	> 10 µM (inactive)	–	> 10 µM (inactive)	–	6.84 µM (inactive)	–	> 10 µM (inactive)	> 10 µM (inactive)	5.12 µM (inactive)	> 10 µM (inactive)	> 10 µM (inactive)	> 10 µM (inactive)	> 10 µM (inactive)	> 10 µM (inactive)	> 10 µM (inactive)	–
O=C(O)CCC(N/N=N/c1ccc(-c2nc3ccccc3[nH]2)cc1)C(=O)O (stereo not given)	78.7 µM (inactive)	28.2 µM (inactive)	–	37.2 µM (inactive)	36.1 µM (inactive)	30.1 µM (inactive)	23.1 µM (inactive)	31.6 µM (inactive)	27.8 µM (inactive)	30.3 µM (inactive)	34.8 µM (inactive)	81.8 µM (inactive)	17.9 µM (inactive)	40.9 µM (inactive)	59.7 µM (inactive)	> 100 µM (inactive)	29.7 µM (inactive)	> 100 µM (inactive)	> 100 µM (inactive)	> 100 µM (inactive)
COc1cc2oc(=O)ccc2cc1CC=C(C)C [SUBEROSIN]	46.8 µM (inactive)	35.2 µM (inactive)	31 µM (inactive)	14.7 µM (inactive)	18 µM (inactive)	51.4 µM (inactive)	32.4 µM (inactive)	28.8 µM (inactive)	22.9 µM (inactive)	59.7 µM (inactive)	44.6 µM (inactive)	83 µM (inactive)	19.5 µM (inactive)	16.9 µM (inactive)	–	50.6 µM (inactive)	21 µM (inactive)	19.9 µM (inactive)	54.3 µM (inactive)	72.6 µM (inactive)
Cc1ccc(-c2nc3cc(Cl)ccc3[nH]2)cc1	83.4 µM (inactive)	97.5 µM (inactive)	53.2 µM (inactive)	27 µM (inactive)	> 100 µM (inactive)	45.5 µM (inactive)	> 100 µM (inactive)	32.4 µM (inactive)	71.3 µM (inactive)	> 100 µM (inactive)	> 100 µM (inactive)	79.1 µM (inactive)	46.8 µM (inactive)	> 100 µM (inactive)	> 100 µM (inactive)	> 100 µM (inactive)	3.38 µM (inactive)	> 100 µM (inactive)	> 100 µM (inactive)	–
C1=CC(=[N+]2N=C(c3ccccc3)CC2c2ccccc2)C=CC1=C1SC(c2ccccc2)(c2ccccc2)c2ccccc21.[O-][Cl+3]([O-])([O-])[O-] (stereo not given)	> 100 µM (inactive)	> 100 µM (inactive)	> 100 µM (inactive)	> 100 µM (inactive)	82 µM (inactive)	> 100 µM (inactive)	> 100 µM (inactive)	> 100 µM (inactive)	> 100 µM (inactive)	> 100 µM (inactive)	> 100 µM (inactive)	> 100 µM (inactive)	–	> 100 µM (inactive)	> 100 µM (inactive)	79.4 µM (inactive)	> 100 µM (inactive)	> 100 µM (inactive)	–	> 100 µM (inactive)
Nn1c(-c2ccccc2)nn(C(=O)c2ccccc2)c1=O	> 100 µM (inactive)	> 100 µM (inactive)	> 100 µM (inactive)	> 100 µM (inactive)	> 100 µM (inactive)	> 100 µM (inactive)	> 100 µM (inactive)	> 100 µM (inactive)	> 100 µM (inactive)	> 100 µM (inactive)	> 100 µM (inactive)	> 100 µM (inactive)	> 100 µM (inactive)	> 100 µM (inactive)	–	> 100 µM (inactive)	> 100 µM (inactive)	> 100 µM (inactive)	> 100 µM (inactive)	> 100 µM (inactive)
